Results taken from patent publication US11319315B2, “Cyclohexyl acid triazole azoles as LPA antagonists” (BRISTOL-MYERS SQUIBB COMPANY, priority 2017, dated 2022).
Like-named read-outs stand apart in the source and are kept apart here.

Molecular target: T1, human LPA1 (Homo sapiens, UniProt Q92633)
T1 construct: expressed in transfected cells; host or cells: Chinese hamster ovary (CHO) cells
Experiment: LPA1 functional antagonist assay (LPA-induced calcium flux in CHO cells overexpressing human LPA1)
Type: cell-based
Conditions: read-out: hLPA1 IC50
Summary of the method: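 CHO cells overexpressing human LPA1, dye-loaded 30 min at 37 °C, then given compound (0.08 nM–5 μM final, 0.5% DMSO) in HBSS/20 mM HEPES/0.1% fatty-acid-free BSA for 20 min at room temperature before 10 nM LPA. IC50 as 50% inhibition of LPA-evoked calcium flux, 4-parameter logistic fit.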

[1] = inhibition of calcium flux induced by 10 nM LPA, CHO cells overexpressing human LPA1

T1 sequence (Q92633 whole entry): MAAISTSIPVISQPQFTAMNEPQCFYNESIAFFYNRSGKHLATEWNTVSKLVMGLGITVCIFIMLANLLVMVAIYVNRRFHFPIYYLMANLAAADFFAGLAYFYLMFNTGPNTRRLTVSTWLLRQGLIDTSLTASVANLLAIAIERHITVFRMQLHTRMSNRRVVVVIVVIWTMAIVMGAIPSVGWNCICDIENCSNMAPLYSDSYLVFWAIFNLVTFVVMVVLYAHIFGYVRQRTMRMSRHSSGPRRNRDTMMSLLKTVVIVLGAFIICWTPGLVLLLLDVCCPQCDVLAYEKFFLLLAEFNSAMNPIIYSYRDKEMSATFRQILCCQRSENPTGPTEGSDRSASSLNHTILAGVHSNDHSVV

Compound	IC50 [1]	IC50
Cc1nc(-c2nnn(C)c2CNc2nsc(C3CC3)n2)ccc1O[C@H]1CCC[C@H](C(=O)O)C1 [Example 1, (1 S,3 S)-3-((6-(5-(((5-Cyclopropyl-1,2,4-thiadiazol-3-yl)amino)methyl)-1-methyl-1H-1,2,3-triazol-4-yl)-2-methylpyridin-3-yl)oxy)cyclohexane-1-carboxylic acid]	1180 nM	–
CCCCc1nnn(Cc2c(-c3ccc(O[C@H]4CCC[C@H](C(=O)O)C4)c(C)n3)nnn2C)n1 [Example 111]	34 nM	–
Cc1nc(-c2nnn(C)c2Cn2cc(C3(O)CCCCC3)nn2)ccc1O[C@H]1CCC[C@H](C(=O)O)C1 [Example 89]	3270 nM	–
Cc1nc(-c2nnn(C)c2Cc2nnc(C3CCCC3)o2)ccc1O[C@H]1CCC[C@H](C(=O)O)C1 [Example 75]	289 nM	–
C=CCC(C)c1nc(NCc2c(-c3ccc(O[C@H]4CCC[C@H](C(=O)O)C4)c(C)n3)nnn2C)no1 (stereo partly shown) [Example 202]	8.4 nM	–
Cc1nc(-c2nnn(C)c2CNc2noc(COCCCCF)n2)ccc1O[C@H]1CCC[C@H](C(=O)O)C1 [Example 410, (1S,3S)-3-((6-(5-(((5-((4-fluoro-butoxy)methyl)-1,2,4-oxadiazol-3-yl)amino)methyl)-1-methyl-1H-1,2,3-triazol-4-yl)-2-methylpyridin-3-yl)oxy)cyclohexane-1-carboxylic acid]	–	43 nM
Cc1nc(-c2nnn(C)c2CNc2nnc(C3CC3)s2)ccc1O[C@H]1CCC[C@H](C(=O)O)C1 [Example 7]	2240 nM	–
Cc1nc(-c2nnn(C)c2CNc2ncc(C(C)C)o2)ccc1O[C@H]1CCC[C@H](C(=O)O)C1 [Example 139]	38 nM	–
Cn1nnc(-c2ccc(O[C@H]3CCC[C@H](C(=O)O)C3)c(C#N)n2)c1Cn1cc(CC2CCCC2)nn1 [Example 93]	60 nM	–
Cc1nc(-c2nnn(C)c2CNc2noc(CCCC(F)(F)F)n2)ccc1O[C@H]1CCC[C@H](C(=O)O)C1 [Example 177]	9.1 nM	–
CCC(C)c1nc(NCc2c(-c3ccc(O[C@H]4CCC[C@H](C(=O)O)C4)c(C)n3)nnn2C)no1 (stereo partly shown) [Example 178]	27.4 nM	–
Cc1nc(-c2nnn(C)c2CNc2nc(C(C)(C)C)ns2)ccc1O[C@H]1CCC[C@H](C(=O)O)C1 [Example 3, (1 S,3 S)-3-((6-(5-(((3-(tert-Butyl)-1,2,4-thiadiazol-5-yl)amino)methyl)-1-methyl-1H-1,2,3-triazol-4-yl)-2-methylpyridin-3-yl)oxy)cyclohexanecarboxylic acid]	236 nM	–
CCCOC(C)c1nc(NCc2c(-c3ccc(O[C@H]4CCC[C@H](C(=O)O)C4)c(C)n3)nnn2C)no1 (mixture of isomers) [Example 218, (1S,3S)-3-((2-methyl-6-(1-methyl-5-(((5-(1-propoxyethyl)-1,2,4-oxadiazol-3-yl)amino)methyl)-1H-1,2,3-triazol-4-yl)pyridin-3-yl)oxy)cyclohexane-1-carboxylic acid]	35 nM	–
CCCCc1nnnn1Cc1c(-c2ccc(O[C@H]3CCC[C@H](C(=O)O)C3)c(C)n2)nnn1C [Example 112]	176 nM	–
Cc1nc(-c2nnn(C)c2CNc2nc(CCC(C)C)no2)ccc1O[C@H]1CCC[C@H](C(=O)O)C1 [Example 158]	21 nM	–
Cc1nc(-c2nnn(C)c2CNc2noc(C3(C)CC3)n2)ccc1O[C@H]1CCC[C@H](C(=O)O)C1 [Example 154]	441 nM	–
Cc1nc(-c2nnn(C)c2Cn2nnc(-c3ccccc3)n2)ccc1O[C@H]1CCC[C@H](C(=O)O)C1 [Example 107]	42 nM	–

Other lines, results leading:

IC50 [1]	IC50	Compound
963 nM	–	Cc1cc(C)n(Cc2nnn(Cc3c(-c4ccc(O[C@H]5CCC[C@H](C(=O)O)C5)c(C)n4)nnn3C)n2)n1 [Example 301, (1S,3S)-3-({6-[5-({5-[(3,5-dimethyl-1H-pyrazol-1-yl)methyl]-2H-1,2,3,4-tetrazol-2-yl}methyl)-1-methyl-1H-1,2,3-triazol-4-yl]-2-methylpyridin-3-yl}oxy)cyclohexane-1-carboxylic acid]
–	428 nM	Cc1nc(-c2nnn(C)c2Cn2nnc(NCC3CC3)n2)ccc1O[C@H]1CCC[C@H](C(=O)O)C1 [Example 359, (1S,3S)-3-((6-(5-((5-((cyclopropylmethyl)amino)-2H-tetrazol-2-yl)methyl)-1-methyl-1H-1,2,3-triazol-4-yl)-2-methylpyridin-3-yl)oxy)cyclohexane-1-carboxylic acid]
28 nM	–	Cc1nc(-c2nnn(C)c2Cc2noc(CC3CCC3)n2)ccc1O[C@H]1CCC[C@H](C(=O)O)C1 [Example 236, (1S,3S)-3-((6-(5-((5-(cyclobutyl-methyl)-1,2,4-oxadiazol-3-yl)methyl)-1-methyl-1H-1,2,3-triazol-4-yl)-2-methylpyridin-3-yl)oxy)cyclohexane-1-carboxylic acid]
1100 nM	–	Cc1nc(-c2nnn(C)c2Cn2nnc(S(C)(=O)=O)n2)ccc1O[C@H]1CCC[C@H](C(=O)O)C1 [Example 343, (1S,3S)-3-[(6-{5-[(5-methane-sulfonyl-2H-1,2,3,4-tetrazol-2-yl)methyl]-1-methyl-1H-1,2,3-triazol-4-yl}-2-methylpyridin-3-yl)oxy]cyclohexane-1-carboxylic acid]
–	285 nM	CCCn1nnc(NCc2c(-c3ccc(O[C@H]4CCC[C@H](C(=O)O)C4)c(C)n3)nnn2C)n1 [Example 387, (1S,3S)-3-((2-methyl-6-(1-methyl-5-(((2-propyl-2H-tetrazol-5-yl)amino)methyl)-1H-1,2,3-triazol-4-yl)pyridin-3-yl)oxy)cyclohexane-1-carboxylic acid]
59.4 nM	–	CCCC(C)c1nc(NCc2c(-c3ccc(O[C@H]4CCC[C@H](C(=O)O)C4)cn3)nnn2C)no1 (mixture of isomers) [Example 291, (1S,3S)-3-((6-(1-methyl-5-(((5-(pentan-2-yl)-1,2,4-oxadiazol-3-yl)amino)methyl)-1H-1,2,3-triazol-4-yl)pyridin-3-yl)oxy)cyclohexane-1-carboxylic acid, racemate]
1440 nM	–	Cc1nc(-c2nnn(C)c2Nc2nc(-c3ccccc3)no2)ccc1O[C@H]1CCC[C@H](C(=O)O)C1 [Example 411, (1 S,3S)-3-((2-methyl-6-(1-methyl-5-((3-phenyl-1,2,4-oxadiazol-5-yl)amino)-1H-1,2,3-triazol-4-yl)pyridin-3-yl)oxy)cyclohexane-1-carboxylic acid]
580 nM	–	CSc1nnnn1Cc1c(-c2ccc(O[C@H]3CCC[C@H](C(=O)O)C3)c(C)n2)nnn1C [Example 352, (1S,3S)-3-{[2-methyl-6-(1-methyl-5-{[5-(methylsulfanyl)-1H-1,2,3,4-tetrazol-1-yl]methyl}-1H-1,2,3-triazol-4-yl)pyridin-3-yl]oxy}cyclohexane-1-carboxylic acid]
–	273 nM	Cc1nc(-c2nnn(C)c2Cn2nnc(N(C)Cc3ccccc3)n2)ccc1O[C@H]1CCC[C@H](C(=O)O)C1 [Example 364, (1S,3S)-3-((6-(5-((5-(benzyl(methyl)amino)-2H-tetrazol-2-yl)methyl)-1-methyl-1H-1,2,3-triazol-4-yl)-2-methylpyridin-3-yl)oxy)cyclohexane-1-carboxylic acid]
–	228 nM	CCCCN(C)c1nnn(Cc2c(-c3ccc(O[C@H]4CCC[C@H](C(=O)O)C4)c(C)n3)nnn2C)n1 [Example 361, (1S,3S)-3-((6-(5-((5-(butyl(methyl)amino)-2H-tetrazol-2-yl)methyl)-1-methyl-1H-1,2,3-triazol-4-yl)-2-methylpyridin-3-yl)oxy)cyclo-hexane-1-carboxylic acid]
264 nM	–	CCCc1nnnn1Cc1c(-c2ccc(O[C@H]3CCC[C@H](C(=O)O)C3)cn2)nnn1C [Example 253, (1S,3S)-3-((6-(1-methyl-5-((5-propyl-1H-tetrazol-1-yl)methyl)-1H-1,2,3-triazol-4-yl)pyridin-3-yl)oxy)cyclohexane-1-carboxylic acid]
14 nM	–	Cc1nc(-c2nnn(C)c2Cn2nnc(C3CCCC3)n2)ccc1O[C@H]1CCC[C@H](C(=O)O)C1 [Example 329, (1S,3S)-3-((6-(5-((5-cyclopentyl-2H-tetrazol-2-yl)methyl)-1-methyl-1H-1,2,3-triazol-4-yl)-2-methylpyridin-3-yl)oxy)cyclo-hexane-1-carboxylic acid]
81 nM	–	Cc1nc(-c2nnn(C)c2Cn2nnc(OC3CC3)n2)ccc1O[C@H]1CCC[C@@H](C(=O)O)C1 [Example 341, (3S)-3-[(6-{5-[(5-cyclopropoxy-2H-1,2,3,4-tetrazol-2-yl)methyl]-1-methyl-1H-1,2,3-triazol-4-yl}-2-methylpyridin-3-yl)oxy]cyclo-hexane-1-carboxylic acid]
154 nM	–	Cc1nc(-c2nnn(C)c2Cn2nnnc2CC2CCCC2)ccc1O[C@H]1CCC[C@H](C(=O)O)C1 [Example 315, (1S,3S)-3-{[6-(5-{[5-(cyclopentyl-methyl)-1H-1,2,3,4-tetrazol-1-yl]methyl}-1-methyl-1H-1,2,3-triazol-4-yl)-2-methylpyridin-3-yl]oxy}cyclohexane-1-carboxylic acid]
2 nM	–	Cc1nc(-c2nnn(C)c2Cc2noc(CCC(C)(F)F)n2)ccc1O[C@H]1CCC[C@H](C(=O)O)C1 [Example 227, (1 S,3 S)-3-((6-(5-((5-(3,3-difluorobutyl)-1,2,4-oxadiazol-3-yl)methyl)-1-methyl-1H-1,2,3-triazol-4-yl)-2-methylpyridin-3-yl)oxy)cyclohexane-1-carboxylic acid]
1240 nM	–	Cc1nc(-c2nnn(C)c2Cn2nnnc2S(C)(=O)=O)ccc1O[C@H]1CCC[C@H](C(=O)O)C1 [Example 350, (1S,3S)-3-[(6-{5-[(5-methanesul-fonyl-1H-1,2,3,4-tetrazol-1-yl)methyl]-1-methyl-1H-1,2,3-triazol-4-yl}-2-methylpyridin-3-yl)oxy]cyclohexane-1-carboxylic acid]
32 nM	–	Cc1nc(-c2nnn(C)c2Cn2nnc(C3CCC3)n2)ccc1O[C@H]1CCC[C@H](C(=O)O)C1 [Example 355, (1S,3S)-3-[(6-{5-[(5-cyclobutyl-2H-1,2,3,4-tetrazol-2-yl)methyl]-1-methyl-1H-1,2,3-triazol-4-yl}-2-methylpyridin-3-yl)oxy]cyclohexane-1-carboxylic acid]
